Data set [1] addresses T1, PHD/bromodomain of TRIM24 (Homo sapiens, UniProt O15164).
T1 construct: His6 (N, cleaved yes); SUMO-1 (N, cleaved yes); made in house; host or cells: E. coli BL21(DE3)-R3-pRARE2
T1 sequence (O15164 825-1006): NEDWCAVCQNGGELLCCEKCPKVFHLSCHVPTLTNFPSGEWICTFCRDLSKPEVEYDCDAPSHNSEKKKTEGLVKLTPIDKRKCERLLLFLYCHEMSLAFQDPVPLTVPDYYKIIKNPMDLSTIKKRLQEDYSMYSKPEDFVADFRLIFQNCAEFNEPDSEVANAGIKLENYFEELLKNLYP
Nature of the data set: Isothermal titration calorimetry, TRIM24. The following applies: single binding site model. For orientation: ITC needs no label: the signal is the heat of the interaction.

The target in data set [2] is T2, BRPF1 bromodomain (BRPF1B) (Homo sapiens, UniProt P55201).
T2 sequence (P55201 628-732 limits assumed): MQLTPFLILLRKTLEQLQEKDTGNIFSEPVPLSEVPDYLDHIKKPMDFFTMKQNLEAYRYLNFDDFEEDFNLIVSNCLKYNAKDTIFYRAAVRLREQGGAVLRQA
The experiment in a line: Isothermal titration calorimetry, BRPF1. The following applies: single binding site model.

A further data set concerns the target T3, BRD1 (BRPF2) bromodomain (Homo sapiens, UniProt O95696).
T3 sequence (O95696 562-666 limits assumed): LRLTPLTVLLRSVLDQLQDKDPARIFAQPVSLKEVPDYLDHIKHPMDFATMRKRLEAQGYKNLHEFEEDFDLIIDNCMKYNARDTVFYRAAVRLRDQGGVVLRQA
The experiment in a line: Isothermal titration calorimetry, BRD1. The following applies: single binding site model.

Data set [3] deals with panel of 45 human bromodomains. The experiment in a line: Temperature shift assay, bromodomain selectivity panel. Type of data set: binding. The following applies: 45 bromodomains; ΔTm smaller than 1 degree not considered significant.
Data set [4] deals with T4, full length TRIM24 fused to GFP (Homo sapiens, UniProt O15164).
T4 sequence (O15164 1-1050): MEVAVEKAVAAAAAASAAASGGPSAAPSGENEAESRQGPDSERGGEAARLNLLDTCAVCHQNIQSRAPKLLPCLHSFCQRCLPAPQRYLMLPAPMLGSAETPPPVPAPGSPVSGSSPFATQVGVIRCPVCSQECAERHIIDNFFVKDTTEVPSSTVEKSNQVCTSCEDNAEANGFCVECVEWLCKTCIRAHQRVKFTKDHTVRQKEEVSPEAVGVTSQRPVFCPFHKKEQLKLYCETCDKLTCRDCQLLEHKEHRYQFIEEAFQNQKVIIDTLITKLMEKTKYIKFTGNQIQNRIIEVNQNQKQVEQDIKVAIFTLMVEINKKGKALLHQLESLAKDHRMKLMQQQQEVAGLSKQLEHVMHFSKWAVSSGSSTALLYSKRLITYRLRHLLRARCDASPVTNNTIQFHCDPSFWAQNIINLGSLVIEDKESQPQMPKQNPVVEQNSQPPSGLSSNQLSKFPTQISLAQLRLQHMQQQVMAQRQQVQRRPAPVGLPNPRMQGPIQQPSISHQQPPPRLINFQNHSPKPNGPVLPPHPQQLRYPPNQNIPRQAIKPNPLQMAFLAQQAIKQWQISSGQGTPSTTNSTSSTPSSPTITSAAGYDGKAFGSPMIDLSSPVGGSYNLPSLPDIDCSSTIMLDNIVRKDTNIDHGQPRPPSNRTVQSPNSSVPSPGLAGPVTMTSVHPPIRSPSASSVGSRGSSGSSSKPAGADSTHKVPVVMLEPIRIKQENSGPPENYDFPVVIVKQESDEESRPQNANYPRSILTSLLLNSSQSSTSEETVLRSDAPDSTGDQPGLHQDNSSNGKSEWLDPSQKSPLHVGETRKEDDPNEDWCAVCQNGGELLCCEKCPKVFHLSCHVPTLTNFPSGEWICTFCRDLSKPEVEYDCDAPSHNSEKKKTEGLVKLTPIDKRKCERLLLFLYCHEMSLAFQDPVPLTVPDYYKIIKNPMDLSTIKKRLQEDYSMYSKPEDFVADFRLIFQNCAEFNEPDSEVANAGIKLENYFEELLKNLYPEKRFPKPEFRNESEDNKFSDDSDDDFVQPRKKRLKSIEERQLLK
Nature of the data set: FRAP assay, TRIM24. Type of data set: cell-based. To be noted: 1 μM, compared with N980F mutant.

Data set [5] has as its target T5, triplicated BRPF1B bromodomain construct with nuclear localization signal (Homo sapiens, UniProt P55201).
T5 sequence (P55201 628-732 limits assumed): T2 sequence (P55201 628-732 limits assumed)
Nature of the data set: FRAP assay, BRPF1B. Type of data set: cell-based. The following applies: with SAHA.

Data set [6] concerns panel of diverse cancer cell lines (MCF-7, RKO, MM1S, RCH-ACH, JJN-3). Nature of the data set: Cytotoxicity assay (CellTiter-Glo), cancer cell line panel. Type of data set: cell-based. The following applies: 72 hours, 5 x E-05 M to 8 x E-08 M. The protocol: (§1) A more comprehensive evaluation of the role of TRIM24 in cancer cell proliferation and chromatin biology would require the development of a tool compound with improved selectivity.
(§2) Calorimetric experiments were performed on a VPqITC microqcalorimeter (MicroCalTM, LLC Northampton, MA). Protein solutions were buffer exchanged by gel filtration or dialysis into buffer (20 mM Hepes pH 7.5, 150 mM NaCl, and 0.5 mM tris (2qcarboxyethyl) phosphine (TCEP)]. All measurements were carried out at 293.15 K while stirring at 286 rpm. The micro syringe was loaded with a protein solution of 250 µM, the compound solution was prepared at 20 µM and 2mL for the cell. All injections were performed using an initial injection of 2 µl followed by 34 injections of 8 µl with a duration of 16 sec per injection and a spacing of 240 sec between injection. The data were analysed with the MicroCal ORIGIN software package employing a single binding site model. The first data point was excluded from the analysis.
(§3) Thermodynamic parameters were calculated (∆G = ∆H q T∆S = qRTlnKB where ∆G, ∆H and ∆S are the changes in free energy, enthalpy and entropy of binding, respectively).
(§4) Temperature shift assays have been carried out as described in Fedorov et al. 2.
(§5) Fluorescence recovery after photobleaching (FRAP)
(§6) The TRIM24 FRAP assay has been carried out as described in Philpott et al.3. […]
(In ATP-based viability assays light output follows the ATP content of the culture.)

For data set [7], the system named is MCF-7 breast cancer cell line. Nature of the data set: Cytotoxicity assay (CellTiter-Glo), MCF-7. Type of data set: cell-based. The following applies: 72 hours, concentration range tested. The protocol: as §1, §2, §3, §4, §5, §6
Another data set addresses T6, TRIM24 bromodomain (Homo sapiens, UniProt O15164).
T6 sequence (O15164 899-1004 limits assumed): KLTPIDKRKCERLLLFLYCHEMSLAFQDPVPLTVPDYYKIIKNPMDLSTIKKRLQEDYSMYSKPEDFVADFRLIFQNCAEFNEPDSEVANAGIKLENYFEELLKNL
The experiment in a line: AlphaScreen assay, TRIM24 bromodomain. Format: binding. To be noted: 6-methoxy (R2) analogues. Here is the method:
However, the most interesting compounds of this series (3–5) also had 3–4 μM activity against TRIM24, which prompted us to explore this scaffold for the development of TRIM24 inhibitors (Table 1).

Turning to `COc1ccc(Oc2cc3c(cc2NS(=O)(=O)c2ccc(OC)c(OC)c2)n(C)c(=O)n3C)cc1` [Compound 34], in data set [1], the “N (ITC stoichiometry), TRIM24” value is on record as 0.923 ± 0.003. Moreover, in data set [2], the “N (ITC stoichiometry), BRPF1B” value was 0.996 ± 0.002. At BRD1 (BRPF2) bromodomain, the “N (ITC stoichiometry), BRD1” value was 1.127 ± 0.02. The “selectivity in temperature shift (ΔTm) panel (in words)” value in data set [3] was “excellent selectivity of 34 for BRPF1B/2 and TRIM24”. The “fluorescent recovery half-time, TRIM24 FRAP (in words)” value in [4] was “effectively reduced fluorescent recovery half-time”. Besides, in data set [5], the “fluorescent recovery time, BRPF1B FRAP (in words)” value is reported as “reduced recovery times”. Also, the “cytotoxicity in cancer cell lines (in words)” value in [6] was “no significant cytotoxicity”. Moreover, the “sensitivity of MCF-7 (in words)” value in [7] was “resistant”.

For the compound `COc1cc2c(cc1NS(=O)(=O)c1ccc(Br)cc1C)n(C)c(=O)n2C` [Compound 8], the “activity against TRIM24 (in words)” value on TRIM24 bromodomain is “lost activity against TRIM24”.

These data come from PMC4770308, “Discovery of a Chemical Tool Inhibitor Targeting the Bromodomains of TRIM24 and BRPF” (Journal of Medicinal Chemistry, 2015).
